Source: patent publication US10675277B2, “Complexes of ivacaftor and its salts and derivatives, process for the preparation thereof and pharmaceutical compositions containing them” (NanGenex Nanotechnology Incorporated, priority 2016, dated 2020)

Legend:
[1] = cited from earlier work
[2] = cited from earlier work; for share of the total dose eliminated as metabolite: oral administration of Ivacaftor
[3] = system: CYP3A; settings: in-vitro and clinical studies, humans; cited from earlier work
[4] = target: CFTR protein (Homo sapiens, UniProt P13569); settings: fraction of the potency of Ivacaftor; cited from earlier work
[5] = Apparent solubility by UV-VIS after 100 nm filtration; assay type: physicochemical; settings: ultrapurified water, thermodynamic from solid, comparative formulation study, read-out: apparent solubility (comparative measurements, FIG. 15)
Description: The solid complex Ivacaftor formulations were dispersed in ultrapurified water in 1-10 mg/mL Ivacaftor equivalent concentration range. The resulting solutions were filtered by 100 nm disposable syringe filter. The Ivacaftor content in the filtrate was measured by UV-Vis spectrophotometry and the apparent solubility was calculated. The filtrate may contain Ivacaftor complex particles which could not be filtrated out using 100 nm pore size filter.
The solid complex Ivacaftor formulations were dispersed in ultrapurified water in 1 mg/mL Ivacaftor equivalent concentration range. The resulting solutions were filtered by 100 nm disposable syringe filter. The Ivacaftor content in the filtrate was measured by UV-Vis spectrophotometry and the apparent solubility was calculated. The filtrate may contain Ivacaftor complex particles which could not be filtrated out using 100 nm pore size filter.

Sequence of CFTR protein (P13569 whole entry): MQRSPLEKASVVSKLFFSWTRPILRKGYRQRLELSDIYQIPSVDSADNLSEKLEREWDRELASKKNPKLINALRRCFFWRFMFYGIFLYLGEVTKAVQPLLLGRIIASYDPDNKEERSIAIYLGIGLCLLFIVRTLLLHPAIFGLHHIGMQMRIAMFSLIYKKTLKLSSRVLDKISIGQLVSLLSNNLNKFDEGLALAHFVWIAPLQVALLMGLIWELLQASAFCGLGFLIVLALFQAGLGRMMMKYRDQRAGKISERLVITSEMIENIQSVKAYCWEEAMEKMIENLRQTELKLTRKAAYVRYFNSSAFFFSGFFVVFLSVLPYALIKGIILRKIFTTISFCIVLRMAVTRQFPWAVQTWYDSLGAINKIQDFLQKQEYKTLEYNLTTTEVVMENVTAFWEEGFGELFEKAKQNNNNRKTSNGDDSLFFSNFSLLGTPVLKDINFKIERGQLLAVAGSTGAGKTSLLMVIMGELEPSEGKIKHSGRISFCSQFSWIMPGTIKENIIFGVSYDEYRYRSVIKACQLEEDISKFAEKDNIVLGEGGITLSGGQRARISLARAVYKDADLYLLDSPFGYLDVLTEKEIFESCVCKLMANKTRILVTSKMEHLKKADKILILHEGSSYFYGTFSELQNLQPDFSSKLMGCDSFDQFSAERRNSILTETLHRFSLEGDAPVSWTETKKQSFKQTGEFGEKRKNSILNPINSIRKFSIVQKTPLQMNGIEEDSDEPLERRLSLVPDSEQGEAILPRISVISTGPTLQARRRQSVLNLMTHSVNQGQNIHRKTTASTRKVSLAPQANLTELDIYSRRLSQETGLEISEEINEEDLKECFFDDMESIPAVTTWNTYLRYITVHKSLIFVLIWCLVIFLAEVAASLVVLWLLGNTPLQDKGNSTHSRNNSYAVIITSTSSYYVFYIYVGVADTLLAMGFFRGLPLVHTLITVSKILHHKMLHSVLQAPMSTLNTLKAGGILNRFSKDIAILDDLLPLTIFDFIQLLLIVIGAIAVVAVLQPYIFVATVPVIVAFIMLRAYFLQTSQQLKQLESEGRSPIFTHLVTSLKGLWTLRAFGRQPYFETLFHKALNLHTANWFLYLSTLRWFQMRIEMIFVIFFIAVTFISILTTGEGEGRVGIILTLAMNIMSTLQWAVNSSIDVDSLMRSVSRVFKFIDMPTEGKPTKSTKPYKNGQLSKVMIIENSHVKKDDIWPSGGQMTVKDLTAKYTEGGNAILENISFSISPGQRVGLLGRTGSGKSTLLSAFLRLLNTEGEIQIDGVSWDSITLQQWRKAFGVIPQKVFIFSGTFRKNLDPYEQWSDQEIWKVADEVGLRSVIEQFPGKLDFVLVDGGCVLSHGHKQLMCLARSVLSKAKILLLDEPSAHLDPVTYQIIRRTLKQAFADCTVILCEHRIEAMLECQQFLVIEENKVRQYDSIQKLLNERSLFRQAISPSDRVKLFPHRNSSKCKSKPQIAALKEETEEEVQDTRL

CC(C)(C)c1cc(C(C)(C)C)c(NC(=O)c2c[nH]c3ccccc3c2=O)cc1O [Ivacaftor, N-(2,4-di-tert-butyl-5-hydroxyphenyl)-1,4-dihydro-4-oxoquinoline-3-carboxamide]
solubility in water [1]: < 0.05 microgram/mL | mean apparent clearance (CL/F), healthy subjects versus patients with CF ([2]; human, in vivo): similar | eliminated in the feces after metabolic conversion ([2]; oral administration): 87.8% | urinary excretion as unchanged parent ([2]; oral administration): negligible | tmax (peak plasma concentrations) ([2]; single 150 mg oral dose, healthy volunteers, fed state): approximately 4 hours | mean apparent volume of distribution (Vz/F), healthy subjects versus patients with CF ([2]; single dose of 275 mg of KALYDECO, fed state): similar | apparent terminal half-life ([2]; single dose): approximately 12 hours | metabolism [3]: primarily metabolized by CYP3A

CC(C)(C)c1cc(C(C)(C)C(=O)O)c(O)cc1NC(=O)c1c[nH]c2ccccc2c1=O [M6]
potency relative to Ivacaftor [4]: less than one-fiftieth | share of the total dose eliminated as metabolite [2]: 43%

CC(C)(C)c1cc(C(C)(C)CO)c(O)cc1NC(=O)c1c[nH]c2ccccc2c1=O [M1]
potency relative to Ivacaftor [4]: approximately one-sixth | share of the total dose eliminated as metabolite [2]: 22%

CC(C)(C)c1cc(C(C)(C)C)c(NC(=O)c2c[nH]c3ccccc3c2=O)cc1O [crystalline Ivacaftor, N-(2,4-di-tert-butyl-5-hydroxyphenyl)-1,4-dihydro-4-oxoquinoline-3-carboxamide]
solubility [5]: < 100 µg/mL
